Data on three compounds can be found in patent publication US7452913B2, “Polymorphs of pyrrole substituted 2-indolinone protein kinase inhibitors” (Pharmacia & Upjohn Company, priority 2003, dated 2008).

Holding throughout (assay type): physicochemical
A short description of data set [1]: Estimation of the solubility of a polymorph in various solvents. Conditions: thermodynamic from solid. As for the experimental part:
Estimation of the Solubility of a Polymorph in Various Solvents.
Approximately 1.5 mg of the polymorph, was transferred to 10 mL glass vials (tared) and was weighed (accurate to 0.1 mg). Solvents were added to the vials (one solvent each vial) in a step-wise fashion. After each addition, the vial was capped and shaken. The dissolution of solid was visually observed. If no obvious dissolution was observed, more solvent was added immediately. If dissolution was apparent, the vial was left on the bench for at least 30 minutes before the next addition of solvent. This step was repeated until no crystals were visible against a black and a white background. The solubility was then bracketed by dividing the weight by the final volume and the volume before the last addition. If a solid remained after the addition of 10 mL solvent, the solubility was expressed as less than the weight divided by the final volume. If the solid was completely dissolved after the first addition of solvent, the solubility was expressed as greater than the weight divided by the solvent volume. The solubility values were expressed as mg/mL. All experiments were conducted at room temperature.
The estimated solubilities of 5-[5-fluoro-2-oxo-1,2-dihydroindol-(3Z)-ylidenmethyl]-2,4-dimethyl-1H-pyrrole-3-carboxylic acid (2-pyrrolidin-1-ylethyl)-amide in various solvents are presented in Table A. The experiments were carried out using polymorph I at room temperature. The solubilities may be divided into three groups.

The nature of data set [2]: pKa.
Data set [3] is described as follows: Equilibrium solution pH of non-buffered aqueous medium after adding the compound. Conditions: for Equilibrium solution pH: non-buffered aqueous medium, ambient temperature. As for the experimental part: Determination of the pH—Solubility Profile of Polymorphs.
About 3 mL aqueous solutions of various concentrations of either HCl or NaOH, providing a pH from 1-13, were transferred to a 10 ml glass vial. A sufficient amount of the polymorph was added. The vials were wrapped with aluminum foil and manually shaken. They were allowed to sit in the fume hood overnight prior to any further treatment.
As expected, the equilibrium solubility of this compound is higher at lower solution pH (Table A). However, the dissolution of a particle in a dissolution medium depends on the pH in the diffusion layer. The pH value of the diffusion layer in intimate contact with the solid (pHh=0) may be obtained from equilibrium pH of the solution, measured by a pH meter. Results are presented in Table B. When the initial pH is higher than 10, the solubility of 5-[5-fluoro-2-oxo-1,2-dihydroindol-(3Z)-ylidenmethyl]-2,4-dimethyl-1 H-pyrrole-3-carboxylic acid (2-pyrrolidin-1-ylethyl)-amide is very low. Therefore, the pH of the solution at equilibrium is almost not changed. On the other hand, if the initial pH<10, more 5-[5-fluoro-2-oxo-1,2-dihydroindol-(3Z)-ylidenmethyl]-2,4-dimethyl-1H-pyrrole-3-carboxylic acid (2-pyrrolidin-1-ylethyl)-amide goes into solution and the equilibrium solution pH is higher than the initial pH (Table B).

Data set [4] is described as follows: Rotating disc intrinsic dissolution rate (IDR) determination. Conditions: for Color change of pellet side exposed to dissolution medium (solid-state conversion): 0.05M KCl, pH 2 buffer, original pellet yellow; for IDR (n = 3): pH = 2 buffer (0.01 N HCl and 0.05 M KCl) at 23° C. As for the experimental part:
Rotating Disc Intrinsic Dissolution Rate (IDR) Determination. The IDR was measured using a fiber optic UV automated dissolution system. The dissolution process was monitored in some instances continuously at 426.2 nm using the fiber optic probe with 10 data points taken per minute. To prepare the compressed disc for the experiment, the powders were compressed in a stainless steel (SS) die, (1¼″ dia×1″, ID 3/16″) using a high speed steel (HSS) punch (diameter 3/16″ and length 3½″). The HSS punch was inserted into the die to a distance of about ¾″, leaving about ¼″ for placement of about 10 mg of the drug into the die cavity. A SS base plate (diameter ¼″) was placed to cover the cavity. The entire assembly was then secured by a 2-bolt holder. A Carver press was used to compress the powder at to ˜1,000 lbs (˜37,000 psi) for 3 minutes. The die and holder was removed from the Carver press and the punch was pulled back a little to allow the pellet to relax/expand. The die was then tightly attached on the HSS punch by a set-screw. The entire punch and die assembly containing the drug pellet with one face of the drug pellet exposed was removed as a unit from the holder and was attached to an electric motor. The die was rotated at 300 rpm and was lowered into the dissolution medium 3 min after the initiation of the data collection program. The dissolution medium was degassed and was contained in a 500 mL water jacketed beaker (Pyrex, No.1000). The data collect during the first 3 min provided a baseline value for each dissolution experiment. The dissolution medium consisted of pH=2 solution (0.01 N HCl and 0.05 M KCl). The die was positioned such that the drug compact was about 2.5″ from the bottom of the 500 mL dissolution vessel and about the same distance from the liquid surface. The intrinsic dissolution profile was plotted using Microsoft Excel and the intrinsic dissolution rate was calculated automatically by the program according to equation (1). The volume of dissolution medium was 300 mL. The surface area of the pellet exposed to dissolution medium was 0.177 cm^2. The time period for a dissolution run was usually 15 min but was varied as needed.

Data set [5] in a line: Slurry conversion (suspension crystallization), resulting solid identified by PXRD. As to conditions: room temperature; for Resulting solid by PXRD: stirred 2 weeks. As for the experimental part: To determine the relative thermodynamic stability relationship between two polymorphs, a slurry conversion experiment was also studied at room temperature using PXRD.
Polymorph I, 20 mg, was suspended in various solvents alone with trace amount of polymorph II seeding crystals in 10 mL glass vials. The suspensions were stirred by magnetic stirring bars for 2 weeks before the solids were filtered and analyzed by PXRD. […] Because the solubility in THF is higher than that in acetone (Table A), low solubility is not the reason for the slow conversion kinetics.

Data set [6] can be described thus: Suspension of polymorphs in pH 2 dissolution medium (HCl salt formation test). As to conditions: for Color change of suspended particles: at least 15 minutes after suspension; for Appearance of suspension: one day after preparation. An excerpt: To further test the HCl salt formation hypothesis. Both polymorph I and II were suspended in the above dissolution medium. […] It is also possible that compaction prior to the IDR experiment modify the crystals of polymorph I and render it the ability of rapid conversion. The XRD pattern of polymorph I pellets compressed at various pressures show some degree of amorphous content, which may be connected to its rapid salt formation during the IDR experiment.

The solubility is how much of the substance goes into solution per volume. For orientation: pKa means the pH at which an ionisable group is half protonated. Low readings indicate a stronger acid or weaker base, high ones a weaker acid or stronger base.

In brackets after ≈: the same amount, converted by molar mass. Like-named read-outs stand apart in the source and are kept apart here. Marks after values point to notes of the source that are not given here.

For the compound `Cc1[nH]c(/C=C2\C(=O)Nc3ccc(F)cc32)c(C)c1C(=O)NCCN1CCCC1` [5-[5-fluoro-2-oxo-1,2-dihydroindol-(3Z)-ylidenmethyl]-2,4-dimethyl-1H-pyrrole-3-carboxylic acid (2-pyrrolidin-1-ylethyl)-amide], the solubility in data set [1] (DMF and pH<=2 water (one solvent per vial), organic solvent or mixture, DMSO, DMF and pH<=2 water, polymorph I, room temperature, read-out: Solubility (Group III solvents)) is over 1000 µg/mL; in data set [1] (dioxane and THF (one solvent per vial), organic solvent or mixture, methanol, ethanol, dioxane and THF, polymorph I, room temperature, read-out: Solubility (Group II solvents)) it was 100 to 400 µg/mL (≈ 252 to 1010 µM); in data set [1] (organic solvent or mixture, isopropyl alcohol, CH2Cl2, ethyl acetate, acetonitrile, acetone, chloroform, toluene, hexane and pH>6 water, polymorph I, room temperature, read-out: Solubility (Group I solvents)), under 300 µg/mL. The compound further returned a pKa in data set [2] of 8.5. For the same compound, the “pH of the diffusion layer in contact with the solid (pHh=0)” value in data set [3] (bulk dissolution medium pH as low as 1.4) is over 5. In addition, the “Solubility at initial pH higher than 10” value in data set [3] (initial pH higher than 10, aqueous) was “very low”. In addition, the “Equilibrium solution pH” value came out at 5.36 in data set [3] (initial solution pH 1.43); 5.20 in data set [3] (initial solution pH 2.19); 6.98 in data set [3] (initial solution pH 3.22); 8.13 in data set [3] (initial solution pH 5.47); 8.31 in data set [3] (initial solution pH 6.73); 8.49 in data set [3] (initial solution pH 7.24). The “Equilibrium solution pH” value is listed as 8.87 in data set [3] (initial solution pH 7.61); 9.86 in data set [3] (initial solution pH 10.07); 11.61 in data set [3] (initial solution pH 11.53); 12.52 in data set [3] (initial solution pH 12.50); 13.18 in data set [3] (initial solution pH 13.20).

Consider `Cc1[nH]c(/C=C2\C(=O)Nc3ccc(F)cc32)c(C)c1C(=O)NCCN1CCCC1` [polymorph I, 5-[5-fluoro-2-oxo-1,2-dihydroindol-(3Z)-ylidenmethyl]-2,4-dimethyl-1H-pyrrole-3-carboxylic acid (2-pyrrolidin-1-ylethyl)-amide], for which the solubility is 3110 µg/mL (≈ 7840 µM) in data set [1] (aqueous buffer, Water (pH = 2), 23° C., read-out: Solubility); 5 µg/mL (≈ 12.6 µM) in data set [1] (aqueous buffer, Water (pH = 6), 23° C., read-out: Solubility); under 160 µg/mL in data set [1] (organic solvent or mixture, Acetone, 23° C., read-out: Solubility); under 80 µg/mL in data set [1] (organic solvent or mixture, Acetonitrile, 23° C., read-out: Solubility); under 120 µg/mL in data set [1] (organic solvent or mixture, CH2Cl2, 23° C., read-out: Solubility); under 110 µg/mL in data set [1] (organic solvent or mixture, Chloroform, 23° C., read-out: Solubility). For the same compound, the solubility in data set [1] (organic solvent or mixture, DMF, 23° C., read-out: Solubility) is over 1500 µg/mL; in data set [1] (organic solvent or mixture, DMSO, 23° C., read-out: Solubility), 1500 to 3000 µg/mL (≈ 3780 to 7570 µM); in data set [1] (organic solvent or mixture, Dioxane, 23° C., read-out: Solubility), 180 to 200 µg/mL (≈ 454 to 504 µM); in data set [1] (organic solvent or mixture, Ethyl acetate, 23° C., read-out: Solubility), under 280 µg/mL; in data set [1] (organic solvent or mixture, Hexane, 23° C., read-out: Solubility), under 130 µg/mL; in data set [1] (organic solvent or mixture, Isopropanol, 23° C., read-out: Solubility) it was under 140 µg/mL. Also, the solubility in data set [1] (organic solvent or mixture, PEG 400, 23° C., read-out: Solubility) was 300 to 430 µg/mL (≈ 757 to 1080 µM); in data set [1] (organic solvent or mixture, THF, 23° C., read-out: Solubility), 320 to 400 µg/mL (≈ 807 to 1010 µM); in data set [1] (organic solvent or mixture, Toluene, 23° C., read-out: Solubility) it was under 130 µg/mL; in data set [1] (organic solvent or mixture, ethanol, 23° C., read-out: Solubility), 170 to 190 µg/mL (≈ 429 to 479 µM); in data set [1] (organic solvent or mixture, methanol, 23° C., read-out: Solubility) it was 210 to 310 µg/mL (≈ 530 to 782 µM). Moreover, in data set [4], the “Color change of pellet side exposed to dissolution medium (solid-state conversion)” value is reported as “orange-red”. The “IDR (n = 3)” value in data set [4] is given as 1.08 ± 0.09^c mg/min/cm^2. The “Resulting solid by PXRD” value in data set [5] (Acetone suspension) was “converts to polymorph II”; in data set [5] (Methanol suspension) it was “converts to polymorph II”; in data set [5] (THF suspension), “appears stable”. In addition, the “Color change of suspended particles” value in data set [6] was “no change of color”. Further, the Appearance of suspension result in data set [6] is reported as “orange-red needle-shaped crystals”.

In the case of `Cc1[nH]c(/C=C2\C(=O)Nc3ccc(F)cc32)c(C)c1C(=O)NCCN1CCCC1` [polymorph II, 5-[5-fluoro-2-oxo-1,2-dihydroindol-(3Z)-ylidenmethyl]-2,4-dimethyl-1H-pyrrole-3-carboxylic acid (2-pyrrolidin-1-ylethyl)-amide], in data set [4], the “Color change of pellet side exposed to dissolution medium (solid-state conversion)” value is “No obvious color change” and the “IDR (n = 3)” value amounted to 3.54 ± 0.15 mg/min/cm^2. The “IDR of polymorph II relative to apparent IDR of polymorph I” value in data set [4] (pH 2 buffer at 23° C.) was “about three times”. Further, the “Relative thermodynamic stability of the polymorphs” value in data set [5] was “thermodynamically more stable than polymorph I”. Also, in data set [6], the “Color change of suspended particles” value is recorded as “no change of color” and the Appearance of suspension result is recorded as “orange-red needle-shaped crystals”.
